Data on six compounds can be found in ChEMBL document CHEMBL1133036, “Diacylglycerols with lipophilically equivalent branched acyl chains display high affinity for protein kinase C (PK-C). A direct measure of the effect of constraining the glycerol backbone in DAG lactones” (Bioorg Med Chem Lett, 2000).

Usually logD stands for lipophilicity at a set pH, counting ionised and neutral species.

Each structure is given as a SMILES string.

The data set is described as follows: Partition coefficient (logD). Type of data set: physicochemical. Particulars: octanol/water.
Consider `CC(C)(C)C(=O)OCC(CO)OC(=O)C(C)(C)C` (stereo unspecified), for which the pH-dependent lipophilicity (logD) turned out to be 2.
In turn, `CC(C)C(CC(=O)OC[C@H](CO)OC(=O)CC(C(C)C)C(C)C)C(C)C` returned a logD of 5.
`CC(C)C(C/C=C1/CC(CO)(COC(=O)CC(C(C)C)C(C)C)OC1=O)C(C)C` (stereo unspecified) gave a logD of 5.
In the case of `O=C(OC[C@H](CO)OC(=O)C12CC3CC(CC(C3)C1)C2)C12CC3CC(CC(C3)C1)C2`, the pH-dependent lipophilicity (logD) came out at 5.
The compound `CCCCCCCC(=O)OC[C@H](CO)OC(=O)CCCCCCC` came in with a pH-dependent lipophilicity (logD) of 5.
With `CCCCCCCC/C=C/CCCCCCCC(=O)O[C@@H](CO)COC(C)=O` [AUTONOM NAME:], the log distribution coefficient (logD) worked out at 7.
